The source of these data is patent publication US20240208957A1, “TRIAZINE DERIVATIVE AS REVERSIBLE AND IRREVERSIBLE COVALENT INHIBITORS OF PI3K” (UNIVERSITÄT BASEL, priority 2021, published 2024).

SMILES strings stand for the structures. pIC50, pKi: −log10 of the molar value. Read-outs that look alike come from different tables or passages of the source.

Data set [1] concerns pSer473 of PKB/Akt in SKOV3 cells. Description: In-Cell Western cellular PI3K signaling, pSer473 of PKB/Akt in SKOV3 cells. Conditions: Homo sapiens. It is filed as cell-based. As for the experimental part:
Protein phosphorylation was detected as follows: pSer473 of PKB/Akt with rabbit polyclonal antibody from Cell Signaling Technology (CST) (#4058) by In-Cell Western assays, where 1.2×10^4 SKOV3 cells/well in 96-well plates were plated (Cell Carrier, PerkinElmer) for 24 hours (37° C., 5% CO2), as described in Ref.^21.

Data set [2] can be described thus: Intrinsic reactivity of the inhibitors with βME measured with HPLC. In kind it is physicochemical. Conditions: 1 mM inhibitor + 600 mM βME, n = 3, mean. From the text: E˜I→EI • ii) off-target reactions with ubiquitous sulfhydryls (S) and other nucleophils present in physiologic environments such as cells and body fluids are driven by the intrinsic reactivity of the warhead that is defined by Kchem driving the conversion of S and I to form the sulfhydryl-adduct (SI) [table]

For data set [3] the following is noted: background statement; cited from earlier work.
The conditions of data set [4]: background statement; cited from earlier work. The source holds these as a separate data set.
Another data set has as its target p110α (PI3Kα) (Homo sapiens, UniProt P42336). Description: LanthaScreen determination of kinetic constants (kinact, Ki) for p110α.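 On all read-outs here: covalent inhibition constants for p110α come from LanthaScreen data, fitted globally by numerical integration in KinTek Global Kinetic Explorer software.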 Conditions: for pKi: dissociation constant of the first reversible binding, mean of 3; for kinact: read-out: kinact PI3Kα. In kind it is binding. In general terms: In TR-FRET formats the signal depends on donor and acceptor labels being close together.

The mark [5] stands for this setting: SK-OV-3, SKOV3 cells, mean of 2 or 3 independent measurements, read-out: IC50 pPKB (S473) SKOV3.
The mark [6] stands for this setting: mean of 3 independent measurements, global fitting with KinTek.

Chain of p110α (PI3Kα) (P42336 whole entry): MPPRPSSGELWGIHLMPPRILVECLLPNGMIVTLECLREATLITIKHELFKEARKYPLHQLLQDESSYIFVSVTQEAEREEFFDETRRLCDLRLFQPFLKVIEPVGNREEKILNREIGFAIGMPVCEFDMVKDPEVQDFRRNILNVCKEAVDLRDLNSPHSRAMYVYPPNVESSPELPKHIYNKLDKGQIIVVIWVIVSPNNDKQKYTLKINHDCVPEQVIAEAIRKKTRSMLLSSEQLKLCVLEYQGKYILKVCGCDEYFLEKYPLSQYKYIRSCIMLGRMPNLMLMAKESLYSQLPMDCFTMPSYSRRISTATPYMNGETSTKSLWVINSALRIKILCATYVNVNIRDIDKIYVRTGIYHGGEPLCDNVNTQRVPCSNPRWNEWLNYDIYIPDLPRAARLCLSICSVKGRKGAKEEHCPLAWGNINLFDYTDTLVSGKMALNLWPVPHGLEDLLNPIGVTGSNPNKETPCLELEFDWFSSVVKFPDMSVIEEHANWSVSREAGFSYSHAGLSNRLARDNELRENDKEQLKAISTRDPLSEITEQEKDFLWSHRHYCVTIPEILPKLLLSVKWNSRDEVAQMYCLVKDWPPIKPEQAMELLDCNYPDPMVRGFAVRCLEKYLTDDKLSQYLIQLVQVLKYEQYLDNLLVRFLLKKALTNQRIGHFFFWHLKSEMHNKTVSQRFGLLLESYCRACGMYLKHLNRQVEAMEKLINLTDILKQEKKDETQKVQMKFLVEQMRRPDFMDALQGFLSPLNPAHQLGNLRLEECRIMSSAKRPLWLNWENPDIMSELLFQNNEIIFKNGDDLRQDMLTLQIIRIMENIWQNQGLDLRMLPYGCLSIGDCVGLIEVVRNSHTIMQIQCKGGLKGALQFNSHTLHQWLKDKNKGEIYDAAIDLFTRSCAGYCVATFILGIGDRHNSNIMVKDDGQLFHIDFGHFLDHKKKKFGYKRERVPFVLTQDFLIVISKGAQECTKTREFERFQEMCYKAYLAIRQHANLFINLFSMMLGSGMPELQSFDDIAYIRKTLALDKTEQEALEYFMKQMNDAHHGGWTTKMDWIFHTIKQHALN
Chain of p110α (PI3Kα) (P27986 whole entry partner): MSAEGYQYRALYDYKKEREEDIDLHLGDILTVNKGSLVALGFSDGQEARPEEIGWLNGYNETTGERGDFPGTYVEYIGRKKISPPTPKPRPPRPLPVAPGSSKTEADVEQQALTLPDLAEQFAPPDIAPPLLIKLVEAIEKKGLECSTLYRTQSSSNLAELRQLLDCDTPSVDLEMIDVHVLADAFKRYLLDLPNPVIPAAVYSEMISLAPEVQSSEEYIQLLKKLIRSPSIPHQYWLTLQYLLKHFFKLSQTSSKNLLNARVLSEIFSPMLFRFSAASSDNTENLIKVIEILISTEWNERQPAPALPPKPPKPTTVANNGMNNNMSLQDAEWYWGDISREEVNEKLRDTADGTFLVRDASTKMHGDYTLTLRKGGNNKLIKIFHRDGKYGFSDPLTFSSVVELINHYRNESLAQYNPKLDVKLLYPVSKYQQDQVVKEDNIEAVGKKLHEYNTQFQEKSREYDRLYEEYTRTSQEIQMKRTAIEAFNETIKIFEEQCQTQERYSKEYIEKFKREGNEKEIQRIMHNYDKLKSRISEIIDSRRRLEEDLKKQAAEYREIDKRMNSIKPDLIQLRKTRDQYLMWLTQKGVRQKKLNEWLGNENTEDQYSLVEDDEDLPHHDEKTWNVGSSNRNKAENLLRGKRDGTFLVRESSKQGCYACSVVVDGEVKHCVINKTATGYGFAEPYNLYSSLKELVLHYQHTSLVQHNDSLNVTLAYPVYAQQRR
Description for p110α (PI3Kα): Apparent dissociation constants of compounds [Ki(app)] for p110α were determined by LanthaScreen Technology (Life Technologies), as described in Ref.^21.
Maximum potential rate of covalent bond formation (Kinact) and dissociation constant of the first reversible binding (Ki) of compounds for p110α were determined by LanthaScreen Technology (Life Technologies). The calculation of kinetic parameters was carried out through global fitting for numerical integration by using KinTek Global Kinetic Explorer modelling software^22-27.

In the case of `CC(C)=CC(=O)CCC(=O)N1CCN(Cc2cc3nc(-c4cccc5[nH]ncc45)nc(N4CCOCC4)c3s2)CC1` [CNX-1351, 1-[4-[[2-(1H-indazol-4-yl)-4-(4-morpholinyl)thieno[3,2-d]pyrimidin-6-yl]methyl]-1-piperazinyl]-6-methyl-5-heptene-1,4-dione, reference compound], in data set [1] (setting [5]), the pIC50 is 6.79. The kchem in data set [2] stood at 0.000222 M⁻¹ s⁻¹. In data set [3], the metabolic stability entry was “metabolic instability”. Also, in data set [4], the aqueous solubility entry was “low”.
For the molecule `C=CC(=O)N1CC[C@H](C(=O)N(C)CC(=O)N2CCN(c3nc(-c4cnc(N)nc4C(F)F)nc(N4CCOCC4)n3)CC2)C1` [Compound 26, (S)-1-acryloyl-N-(2-(4-(4-(2-amino-4-(difluoromethyl)pyrimidin-5-yl)-6-morpholino-1,3,5-triazin-2-yl)piperazin-1-yl)-2-oxoethyl)-N-methylpyrrolidine-3-carboxamide], on p110α (PI3Kα) (PI3Kα, read-out: kinact/Ki), the kinact/KI turned out to be 150000 M⁻¹ s⁻¹. This molecule had a pKi at p110α (PI3Kα) of 8.28. On p110α (PI3Kα) (setting [6]), the kinact stood at 0.000789 s⁻¹. Also, the pIC50 in data set [1] (setting [5]) is 6.64. Moreover, the kchem in data set [2] is 0.0005 M⁻¹ s⁻¹.
On the same counts, the results for `C=CC(=O)N1CC[C@@H](C(=O)N(C)CC(=O)N2CCN(c3nc(-c4cnc(N)nc4C(F)F)nc(N4CCOCC4)n3)CC2)C1` [Compound 27, (R)-1-acryloyl-N-(2-(4-(4-(2-amino-4-(difluoromethyl)pyrimidin-5-yl)-6-morpholino-1,3,5-triazin-2-yl)piperazin-1-yl)-2-oxoethyl)-N-methylpyrrolidine-3-carboxamide] are 531000 M⁻¹ s⁻¹, 8.22, 0.0032 s⁻¹, 7.19 and 0.00049 M⁻¹ s⁻¹.
As for `C=CC(=O)N1CCC[C@H]1C(=O)NCC(=O)N1CCN(c2nc(-c3cnc(N)nc3C(F)F)nc(N3CCOCC3)n2)CC1` [Compound 28, (S)-1-acryloyl-N-(2-(4-(4-(2-amino-4-(difluoromethyl)pyrimidin-5-yl)-6-morpholino-1,3,5-triazin-2-yl)piperazin-1-yl)-2-oxoethyl)pyrrolidine-2-carboxamide], the kinact/KI on p110α (PI3Kα) (PI3Kα, read-out: kinact/Ki) stood at 44500 M⁻¹ s⁻¹. The same molecule had a pKi at p110α (PI3Kα) of 8.20. Also, the maximal inactivation rate constant (kinact) at p110α (PI3Kα) (setting [6]) is 0.000281 s⁻¹. The pIC50 in data set [1] (setting [5]) is 6.52. For the same molecule, the kchem in data set [2] worked out at 0.00655 M⁻¹ s⁻¹.
With `C=CC(=O)N1CCC[C@@H]1C(=O)NCC(=O)N1CCN(c2nc(-c3cnc(N)nc3C(F)F)nc(N3CCOCC3)n2)CC1` [Compound 29, (R)-1-acryloyl-N-(2-(4-(4-(2-amino-4-(difluoromethyl)pyrimidin-5-yl)-6-morpholino-1,3,5-triazin-2-yl)piperazin-1-yl)-2-oxoethyl)pyrrolidine-2-carboxamide], the kinact/KI on p110α (PI3Kα) (PI3Kα, read-out: kinact/Ki) worked out at 40700 M⁻¹ s⁻¹. This molecule had a pKi at p110α (PI3Kα) of 8.17. Further, the kinact on p110α (PI3Kα) (setting [6]) was 0.000275 s⁻¹. Also, the pIC50 in data set [1] (setting [5]) is 6.69. For the same molecule, in data set [2], the kchem worked out at 0.0079 M⁻¹ s⁻¹.
As for `C=CC(=O)N1CC(C(=O)N(C)CC(=O)N2CCN(c3nc(-c4cnc(N)nc4C(F)F)nc(N4CCOCC4)n3)CC2)C1` [Compound 33, 1-acryloyl-N-(2-(4-(4-(2-amino-4-(difluoromethyl)pyrimidin-5-yl)-6-morpholino-1,3,5-triazin-2-yl)piperazin-1-yl)-2-oxoethyl)-N-methylazetidine-3-carboxamide], at p110α (PI3Kα), the kinact/KI is 1.17e+06 M⁻¹ s⁻¹, the pKi was 8.19 and the kinact came to 0.00757 s⁻¹. Further, the pIC50 in data set [1] (SK-OV-3, read-out: IC50 pPKB (S473) SKOV3) is 7.26. Also, the kchem in data set [2] amounted to 0.00581 M⁻¹ s⁻¹.
`C=CC(=O)N1CC(C(=O)NCCC(=O)N2CCN(c3nc(-c4cnc(N)nc4C(F)F)nc(N4CCOCC4)n3)CC2)C1` [Compound 35, 1-acryloyl-N-(3-(4-(4-(2-amino-4-(difluoromethyl)pyrimidin-5-yl)-6-morpholino-1,3,5-triazin-2-yl)piperazin-1-yl)-3-oxopropyl)azetidine-3-carboxamide]: the kinact/KI at p110α (PI3Kα) (PI3Kα, read-out: kinact/Ki) worked out at 126000 M⁻¹ s⁻¹. The pKi at p110α (PI3Kα) is 7.87. Also, at p110α (PI3Kα) (setting [6]), the kinact worked out at 0.00169 s⁻¹. Besides, the pIC50 in data set [1] (setting [5]) is 6.22. Further, in data set [2], the kchem was found to be 0.00662 M⁻¹ s⁻¹.
Take `C=CC(=O)N1CCC(COCC(=O)N2CCN(c3nc(-c4cnc(N)nc4C(F)F)nc(N4CCOCC4)n3)CC2)CC1` [Compound 46, 1-(4-((2-(4-(4-(2-amino-4-(difluoromethyl)pyrimidin-5-yl)-6-morpholino-1,3,5-triazin-2-yl)piperazin-1-yl)-2-oxoethoxy)methyl)piperidin-1-yl)prop-2-en-1-one]: the kinact/KI at p110α (PI3Kα) (PI3Kα, read-out: kinact/Ki) stood at 239000 M⁻¹ s⁻¹. Moreover, the pKi on p110α (PI3Kα) was 8.37. Besides, the kinact on p110α (PI3Kα) (setting [6]) worked out at 0.00102 s⁻¹. Besides, the pIC50 in data set [1] (setting [5]) is 7.64. Moreover, the kchem in data set [2] stood at 0.00029 M⁻¹ s⁻¹.
As for `C=CC(=O)N1CCC(CCCC(=O)N2CCN(c3nc(-c4cnc(N)nc4C(F)F)nc(N4CCOCC4)n3)CC2)CC1` [Compound 47, 4-(1-acryloylpiperidin-4-yl)-1-(4-(4-(2-amino-4-(difluoromethyl)pyrimidin-5-yl)-6-morpholino-1,3,5-triazin-2-yl)piperazin-1-yl)butan-1-one], at p110α (PI3Kα), the kinact/KI was 70300 M⁻¹ s⁻¹, the pKi was 8.15 and the kinact came to 0.000504 s⁻¹. Moreover, the pIC50 in data set [1] (setting [5]) was 7.62. Moreover, the kchem in data set [2] was 0.000225 M⁻¹ s⁻¹.

Usually pIC50 stands for the IC50 on a negative log10 scale, so that one unit is a factor of ten. As a reminder, the pKi is −log10 of the Ki, conventionally taken in molar units. Read a high pKi as a small Ki. By kinact is commonly meant the rate constant of inactivation at saturating inhibitor.
